# Measured values reported in the kinase profiling compilation of Christmann-Franck et al. (2016).
# pKd: −log10 of the molar value.
# Experiments:
# Assay in all cases: KINOMEscan competition binding
# [1] = biological target: CDKL5 (human) (UniProt O76039); conditions: compound 10.0 µM
# [2] = biological target: HUNK (human) (UniProt P57058); conditions: compound 10.0 µM
# [3] = biological target: MAP3K1 (human) (UniProt Q13233); conditions: compound 10.0 µM
# [4] = biological target: MAP2K7 (human) (UniProt O14733); conditions: compound 10.0 µM
# [5] = biological target: WEE1 (human) (UniProt P30291); conditions: compound 10.0 µM
# [6] = biological target: CDK11B (human) (UniProt P21127); conditions: compound 10.0 µM
# [7] = biological target: PIK3C2G (human) (UniProt O75747); conditions: compound 10.0 µM
# [8] = biological target: LCK (human) (UniProt P06239); conditions: compound 10.0 µM
# [9] = biological target: CAMKK2 (human) (UniProt Q96RR4); conditions: compound 10.0 µM
# [10] = biological target: TRPM6 (human) (UniProt Q9BX84); conditions: compound 10.0 µM
# [11] = test system: KIT (human), P10721 [V559D/V654A]; conditions: compound 10.0 µM
# [12] = biological target: TLK1 (human) (UniProt Q9UKI8); conditions: compound 10.0 µM
# [13] = biological target: PLK4 (human) (UniProt O00444)
# PLK4 (human), sequence (O00444 whole entry, looked up): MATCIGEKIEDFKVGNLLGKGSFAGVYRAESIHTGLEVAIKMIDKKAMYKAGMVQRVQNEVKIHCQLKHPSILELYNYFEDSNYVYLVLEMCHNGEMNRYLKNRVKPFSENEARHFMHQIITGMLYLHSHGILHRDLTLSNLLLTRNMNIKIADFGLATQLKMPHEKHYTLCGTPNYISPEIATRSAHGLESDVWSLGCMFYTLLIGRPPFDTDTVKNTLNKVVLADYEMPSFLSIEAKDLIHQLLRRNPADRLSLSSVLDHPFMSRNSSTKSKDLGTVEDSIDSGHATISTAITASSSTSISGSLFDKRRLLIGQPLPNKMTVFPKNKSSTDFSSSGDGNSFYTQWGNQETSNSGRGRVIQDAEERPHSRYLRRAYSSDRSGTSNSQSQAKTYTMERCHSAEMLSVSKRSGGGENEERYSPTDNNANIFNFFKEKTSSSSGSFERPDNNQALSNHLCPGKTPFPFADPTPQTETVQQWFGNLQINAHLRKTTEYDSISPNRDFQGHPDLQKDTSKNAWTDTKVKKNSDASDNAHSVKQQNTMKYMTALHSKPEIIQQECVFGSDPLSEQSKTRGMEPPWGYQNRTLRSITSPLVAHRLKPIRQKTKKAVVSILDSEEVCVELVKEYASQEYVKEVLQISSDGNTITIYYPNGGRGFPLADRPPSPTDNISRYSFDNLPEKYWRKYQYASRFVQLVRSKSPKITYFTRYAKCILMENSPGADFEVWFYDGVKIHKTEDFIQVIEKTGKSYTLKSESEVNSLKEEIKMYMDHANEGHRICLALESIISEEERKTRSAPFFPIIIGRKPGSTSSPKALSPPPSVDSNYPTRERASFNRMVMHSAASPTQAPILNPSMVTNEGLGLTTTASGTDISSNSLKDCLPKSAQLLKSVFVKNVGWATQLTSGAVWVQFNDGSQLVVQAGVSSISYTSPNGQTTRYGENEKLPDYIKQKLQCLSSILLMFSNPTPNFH
# [14] = biological target: DMPK (human) (UniProt Q09013); conditions: compound 10.0 µM
# [15] = biological target: EPHA2 (human) (UniProt P29317); conditions: compound 10.0 µM
# [16] = biological target: FGFR2 (human) (UniProt P21802); conditions: compound 10.0 µM
# [17] = biological target: CDKL3 (human) (UniProt Q8IVW4); conditions: compound 10.0 µM
# [18] = biological target: MAPK6 (human) (UniProt Q16659); conditions: compound 10.0 µM
# [19] = biological target: LRRK2 (human) (UniProt Q5S007)
# LRRK2 (human), sequence (Q5S007 whole entry, looked up): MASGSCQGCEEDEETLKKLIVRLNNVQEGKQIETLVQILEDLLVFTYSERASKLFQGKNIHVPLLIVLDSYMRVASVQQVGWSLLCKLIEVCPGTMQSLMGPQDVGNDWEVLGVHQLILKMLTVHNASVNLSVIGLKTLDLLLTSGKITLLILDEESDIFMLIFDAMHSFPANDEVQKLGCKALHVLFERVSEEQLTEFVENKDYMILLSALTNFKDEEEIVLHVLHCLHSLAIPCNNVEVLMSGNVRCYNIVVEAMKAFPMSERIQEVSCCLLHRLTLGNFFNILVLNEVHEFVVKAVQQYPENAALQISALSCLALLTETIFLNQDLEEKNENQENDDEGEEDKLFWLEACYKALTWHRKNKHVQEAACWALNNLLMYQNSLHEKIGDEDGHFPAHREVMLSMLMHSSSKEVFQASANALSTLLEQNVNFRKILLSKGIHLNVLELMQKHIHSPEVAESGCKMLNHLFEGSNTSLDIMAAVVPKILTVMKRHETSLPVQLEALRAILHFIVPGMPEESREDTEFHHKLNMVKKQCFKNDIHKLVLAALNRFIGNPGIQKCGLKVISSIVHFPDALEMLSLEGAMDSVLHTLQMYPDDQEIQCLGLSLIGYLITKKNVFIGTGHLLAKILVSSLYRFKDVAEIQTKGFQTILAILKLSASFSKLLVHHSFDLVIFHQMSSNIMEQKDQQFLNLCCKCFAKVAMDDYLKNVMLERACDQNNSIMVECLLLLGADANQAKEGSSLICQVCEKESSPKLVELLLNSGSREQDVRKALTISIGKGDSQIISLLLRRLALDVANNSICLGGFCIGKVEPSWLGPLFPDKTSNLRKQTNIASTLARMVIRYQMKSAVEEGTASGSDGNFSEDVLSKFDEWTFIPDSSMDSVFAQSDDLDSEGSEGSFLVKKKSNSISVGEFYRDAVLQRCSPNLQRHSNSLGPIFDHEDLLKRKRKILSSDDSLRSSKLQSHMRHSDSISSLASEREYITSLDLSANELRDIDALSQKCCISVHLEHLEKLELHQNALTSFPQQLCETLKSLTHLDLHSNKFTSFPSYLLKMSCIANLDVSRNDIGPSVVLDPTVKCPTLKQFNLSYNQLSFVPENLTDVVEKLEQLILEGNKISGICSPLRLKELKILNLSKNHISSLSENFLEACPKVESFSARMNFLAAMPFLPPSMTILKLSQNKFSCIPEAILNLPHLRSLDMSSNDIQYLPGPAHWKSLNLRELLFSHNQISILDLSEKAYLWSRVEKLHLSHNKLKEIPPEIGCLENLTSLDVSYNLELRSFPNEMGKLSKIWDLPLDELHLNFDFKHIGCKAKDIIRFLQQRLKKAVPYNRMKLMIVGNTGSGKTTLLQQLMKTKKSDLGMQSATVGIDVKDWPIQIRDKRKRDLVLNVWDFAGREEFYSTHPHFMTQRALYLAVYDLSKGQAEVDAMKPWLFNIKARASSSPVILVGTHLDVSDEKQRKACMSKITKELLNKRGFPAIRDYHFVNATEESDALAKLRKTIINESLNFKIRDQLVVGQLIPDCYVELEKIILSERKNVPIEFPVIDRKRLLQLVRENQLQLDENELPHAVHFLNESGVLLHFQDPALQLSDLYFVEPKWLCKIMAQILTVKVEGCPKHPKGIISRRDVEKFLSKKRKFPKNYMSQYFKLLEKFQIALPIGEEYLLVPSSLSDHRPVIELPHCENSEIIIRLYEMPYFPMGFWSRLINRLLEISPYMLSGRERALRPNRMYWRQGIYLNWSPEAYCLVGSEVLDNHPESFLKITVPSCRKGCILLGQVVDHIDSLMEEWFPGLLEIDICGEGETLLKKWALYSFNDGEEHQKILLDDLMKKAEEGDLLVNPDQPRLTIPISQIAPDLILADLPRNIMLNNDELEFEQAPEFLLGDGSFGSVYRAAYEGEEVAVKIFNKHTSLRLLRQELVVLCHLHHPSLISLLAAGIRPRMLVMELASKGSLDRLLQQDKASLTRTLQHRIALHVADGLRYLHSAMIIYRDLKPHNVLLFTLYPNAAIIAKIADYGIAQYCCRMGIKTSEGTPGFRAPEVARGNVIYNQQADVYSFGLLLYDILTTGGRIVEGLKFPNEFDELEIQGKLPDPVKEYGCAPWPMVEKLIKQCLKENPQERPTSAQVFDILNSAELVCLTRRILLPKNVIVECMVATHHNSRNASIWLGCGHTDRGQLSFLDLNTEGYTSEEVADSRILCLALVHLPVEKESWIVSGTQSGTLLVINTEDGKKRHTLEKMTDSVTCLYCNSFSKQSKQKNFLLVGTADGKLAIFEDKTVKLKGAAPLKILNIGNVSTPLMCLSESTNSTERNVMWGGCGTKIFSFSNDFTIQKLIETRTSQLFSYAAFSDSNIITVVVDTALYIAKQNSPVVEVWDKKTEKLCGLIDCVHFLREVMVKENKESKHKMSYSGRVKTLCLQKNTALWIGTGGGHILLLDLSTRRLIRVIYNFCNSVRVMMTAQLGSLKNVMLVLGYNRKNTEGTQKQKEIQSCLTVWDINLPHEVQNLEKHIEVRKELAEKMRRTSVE
# [20] = test system: PIK3CA (human), P42336 [H1047L]; conditions: compound 10.0 µM
# [21] = test system: EIF2AK4 KD2 (human), Q9P2K8 [S808G]; conditions: compound 10.0 µM
# [22] = test system: PIK3CA (human), P42336 [M1043I]; conditions: compound 10.0 µM
# [23] = biological target: JAK1 JH1 catalytic (human) (UniProt P23458); conditions: compound 10.0 µM
# [24] = biological target: PTK6 (human) (UniProt Q13882); conditions: compound 10.0 µM
# [25] = biological target: SRC (human) (UniProt P12931); conditions: compound 10.0 µM
# SRC (human), sequence (P12931 whole entry, looked up): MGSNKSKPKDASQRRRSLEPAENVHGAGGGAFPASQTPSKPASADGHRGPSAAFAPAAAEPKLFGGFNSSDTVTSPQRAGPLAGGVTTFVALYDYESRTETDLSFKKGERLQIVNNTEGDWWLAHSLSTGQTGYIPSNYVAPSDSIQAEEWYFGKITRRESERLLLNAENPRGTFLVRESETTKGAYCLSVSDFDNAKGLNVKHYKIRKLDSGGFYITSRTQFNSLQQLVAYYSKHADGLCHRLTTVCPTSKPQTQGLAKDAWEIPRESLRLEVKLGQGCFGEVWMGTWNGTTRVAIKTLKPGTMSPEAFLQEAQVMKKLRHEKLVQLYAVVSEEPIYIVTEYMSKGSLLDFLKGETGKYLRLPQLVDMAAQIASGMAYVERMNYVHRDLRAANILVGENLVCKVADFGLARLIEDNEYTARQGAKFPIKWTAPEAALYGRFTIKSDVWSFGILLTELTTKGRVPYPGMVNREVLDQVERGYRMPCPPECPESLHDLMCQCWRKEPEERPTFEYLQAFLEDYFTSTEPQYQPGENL
# [26] = biological target: SNRK (human) (UniProt Q9NRH2); conditions: compound 10.0 µM
# [27] = biological target: PIK3C2B (human) (UniProt O00750); conditions: compound 10.0 µM
# [28] = biological target: TAOK2 (human) (UniProt Q9UL54); conditions: compound 10.0 µM
# [29] = biological target: MET (human) (UniProt P08581); conditions: compound 10.0 µM
# [30] = biological target: RIPK4 (human) (UniProt P57078); conditions: compound 10.0 µM
# [31] = biological target: SRPK3 (human) (UniProt Q9UPE1); conditions: compound 10.0 µM
# [32] = biological target: PHKG1 (human) (UniProt Q16816); conditions: compound 10.0 µM
# [33] = test system: EGFR (human), P00533 [752-759 del]; conditions: compound 10.0 µM
# [34] = biological target: STK16 (human) (UniProt O75716); conditions: compound 10.0 µM
# [35] = biological target: GRK4 (human) (UniProt P32298); conditions: compound 10.0 µM
# [36] = biological target: TAOK3 (human) (UniProt Q9H2K8); conditions: compound 10.0 µM
# [37] = biological target: ERBB4 (human) (UniProt Q15303); conditions: compound 10.0 µM
# [38] = biological target: AXL (human) (UniProt P30530); conditions: compound 10.0 µM
# [39] = biological target: TYK2 JH1 catalytic (human) (UniProt P29597); conditions: compound 10.0 µM
# [40] = biological target: TTK (human) (UniProt P33981); conditions: compound 10.0 µM
# CDKL5 (human), sequence (O76039 whole entry, looked up): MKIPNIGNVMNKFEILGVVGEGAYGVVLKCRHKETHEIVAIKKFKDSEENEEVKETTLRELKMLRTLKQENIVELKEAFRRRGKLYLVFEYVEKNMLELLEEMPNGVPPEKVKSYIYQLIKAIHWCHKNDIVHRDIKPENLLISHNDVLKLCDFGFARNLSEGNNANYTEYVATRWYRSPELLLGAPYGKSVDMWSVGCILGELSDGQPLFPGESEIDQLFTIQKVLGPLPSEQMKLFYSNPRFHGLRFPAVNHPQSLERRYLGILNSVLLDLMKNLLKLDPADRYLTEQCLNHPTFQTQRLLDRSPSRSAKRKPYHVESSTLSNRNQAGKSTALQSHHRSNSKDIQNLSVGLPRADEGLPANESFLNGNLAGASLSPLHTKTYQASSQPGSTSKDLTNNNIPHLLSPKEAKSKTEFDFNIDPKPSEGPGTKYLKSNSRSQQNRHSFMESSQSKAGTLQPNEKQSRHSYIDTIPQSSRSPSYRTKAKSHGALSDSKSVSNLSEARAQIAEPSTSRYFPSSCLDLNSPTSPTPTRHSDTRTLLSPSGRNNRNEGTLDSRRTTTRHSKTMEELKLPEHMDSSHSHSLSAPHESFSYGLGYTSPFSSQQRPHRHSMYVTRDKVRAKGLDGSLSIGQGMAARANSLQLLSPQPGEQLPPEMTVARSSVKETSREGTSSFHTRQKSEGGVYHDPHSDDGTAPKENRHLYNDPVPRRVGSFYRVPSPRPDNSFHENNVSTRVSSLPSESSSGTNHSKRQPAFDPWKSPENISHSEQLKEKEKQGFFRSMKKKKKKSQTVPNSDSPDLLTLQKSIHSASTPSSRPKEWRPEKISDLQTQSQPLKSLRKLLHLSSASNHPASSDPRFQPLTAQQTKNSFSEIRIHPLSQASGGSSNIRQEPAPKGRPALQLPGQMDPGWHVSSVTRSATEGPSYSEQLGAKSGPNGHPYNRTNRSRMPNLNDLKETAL
compound,measurement,setting,value
COc1cc(C(=O)N2CCC(N3CCN(C)CC3)CC2)ccc1Nc1ncc2c(n1)N(C)c1ccccc1C(=O)N2C,residual activity,[1],100%
same,"kinase still bound, per cent of control",[2],100%
same,"kinase still bound, per cent of control",[3],95%
same,"kinase still bound, per cent of control",[4],100%
same,"kinase still bound, per cent of control",[5],100%
same,residual activity,[6],84%
same,"kinase still bound, per cent of control",[7],100%
same,"kinase still bound, per cent of control",[8],100%
same,"kinase still bound, per cent of control",[9],31%
same,"kinase still bound, per cent of control",[10],100%
same,"kinase still bound, per cent of control",[11],100%
same,"kinase still bound, per cent of control",[12],100%
same,pKd,[13],7.80
same,"kinase still bound, per cent of control",[13]; compound 10.0 µM,0%
same,"kinase still bound, per cent of control",[14],100%
same,"kinase still bound, per cent of control",[15],92%
same,"kinase still bound, per cent of control",[16],95%
same,residual activity,[17],83%
same,"kinase still bound, per cent of control",[18],100%
same,pKd,[19],7.70
same,"kinase still bound, per cent of control",[19]; compound 10.0 µM,0%
same,"kinase still bound, per cent of control",[20],20%
same,"kinase still bound, per cent of control",[21],95%
same,"kinase still bound, per cent of control",[22],65%
same,"kinase still bound, per cent of control",[23],100%
same,"kinase still bound, per cent of control",[24],58%
same,"kinase still bound, per cent of control",[25],100%
same,"kinase still bound, per cent of control",[26],94%
same,"kinase still bound, per cent of control",[27],100%
same,"kinase still bound, per cent of control",[28],65%
same,"kinase still bound, per cent of control",[29],100%
same,"kinase still bound, per cent of control",[30],74%
same,"kinase still bound, per cent of control",[31],72%
same,"kinase still bound, per cent of control",[32],54%
same,"kinase still bound, per cent of control",[33],99%
same,"kinase still bound, per cent of control",[34],62%
same,"kinase still bound, per cent of control",[35],86%
same,"kinase still bound, per cent of control",[36],24%
same,"kinase still bound, per cent of control",[37],100%
same,"kinase still bound, per cent of control",[38],100%
same,"kinase still bound, per cent of control",[39],52%
same,"kinase still bound, per cent of control",[40],28%
